Here are results for 1 compound from US11958831B2, “Pyrazole compounds, pharmaceutical compositions thereof and use thereof” (ARTIVILA (SHENZHEN) INNOVATION CENTER, LTD., priority 2018, dated 2024).

Structures are written as SMILES.

Broadly, the IC50 is the concentration that inhibits the measured activity by half.

One experiment concerns the target IRAK4 kinase (Homo sapiens (Human), UniProt Q9NWZ3). Description: IRAK4 kinase activity assay (mobility shift, Km ATP). In kind it is biochemical. The note with it: Km ATP (15.6 μM ATP), 1 nM IRAK4, 60 min room temperature. As to the method:
Inhibitory activity (IC50) of the compounds against IRAK4 kinase under Km ATP was detected through mobility spectrum analysis (MSA). IRAK4 kinase was purchased from Carna (Cat. No.: 09-145, batch No.: 14CBS-0020H), and Kinase Substrate 8 was purchased from GL Biochem (Cat. No.: 112396, batch No.: P171207-MJI112396).
The compounds were prepared with DMSO to 100 times the final reaction concentration and diluted to 10 concentrations in sequence at a 3-fold dilution ratio starting from 1 μM. Then 0.25 μL was transferred to a 384-well plate using Echo550. A 1× kinase buffer (50 mM HEPES, pH=7.5, 0.0015% Brij-35, 10 mM MgCl2, 2 mM DTT) was used to prepare a kinase solution of 2.5 times the final concentration. Then 10 μL of the kinase solution of 2.5 times the final concentration was added to each compound well, shaken and mixed uniformly, and incubated at room temperature for 10 min. A 1× kinase buffer was used to prepare a mixed solution of ATP and substrate Kinase Substrate 8 with a concentration of 25/15 times the final concentration. 15 μL of the mixed solution of ATP and the substrate with a concentration of 25/15 times the final concentration were added to each well (the final concentration of IRAK4 kinase was 1 nM, the final concentration of the substrate was 3 μM, and the final concentration of ATP was 15.6 μM), shaken and mixed uniformly, and reacted at room temperature for 60 min. Finally, 30 μL of stopping solution (100 mM HEPES, pH=7.5, 0.0015% Brij-35, 0.2% Coating Reagent #3, 50 mM EDTA) was added to terminate the reaction. CaliperEZ Reader II was used to read data about conversion rates that was then converted into data about inhibition rates. According to the data about the inhibition rate at each concentration, the half maximal inhibitory concentration (IC50) (Table 1) was calculated by a Logit method.

Experiment [1] concerns TNFα secretion in THP-1 cells. Briefly: Cellular activity assay: LPS-stimulated TNFα secretion in THP-1 cells (ELISA). Format: cell-based. The note with it: Homo sapiens, LPS 1 μg/mL, 4.5 h, read-out: IC50 inhibiting TNFα secretion in THP-1 cells stimulated by LPS. As to the method: Inhibition of IRAK4 by the compounds of the present application was evaluated in THP-1 cells for cellular activity. The stimulus used in this experiment was LPS. LPS is a TLR4 agonist that stimulates the secretion of TNFα through TLR-IRAK4 signaling pathway in the THP-1 cells. Once the signaling pathway is inhibited by IRAK4 inhibitors, the production of TNFα is inhibited. In this experiment, the secretion of TNFα was detected by ELISA.
150 μL of RPMI-1640 medium (Gibco, catalog No.: 11875-085) solution containing 10000 THP-1 cells were added to each well of a 96-well plate and then 25 μL of a test compound solution of 8 times the final concentration (starting from […], 3-fold dilution, 8 concentrations, each concentration containing 4% DMSO RPMI-1640 medium) were added, and they were mixed uniformly and incubated at 37° C. for 30 min. 25 μL of RPMI-1640 medium solution containing LPS were added to each well (the final LPS concentration was 1 μg/mL and the final DMSO concentration was 0.5%), mixed uniformaly, and incubated at 37° C. for 4.5 h. The 96-well plate was rotated at 2000 rpm for 5 min, then 50 μL of supernatant was taken, and the TNFα content in the supernatant was determined with a human ELISA kit (Life Technologies, catalog No.: KHC3011). The IC50 (Table 2) of the compound was calculated by XL-Fit.
(ELISA stands for enzyme-linked immunosorbent assay.)

Chain of IRAK4 kinase (Q9NWZ3 whole entry): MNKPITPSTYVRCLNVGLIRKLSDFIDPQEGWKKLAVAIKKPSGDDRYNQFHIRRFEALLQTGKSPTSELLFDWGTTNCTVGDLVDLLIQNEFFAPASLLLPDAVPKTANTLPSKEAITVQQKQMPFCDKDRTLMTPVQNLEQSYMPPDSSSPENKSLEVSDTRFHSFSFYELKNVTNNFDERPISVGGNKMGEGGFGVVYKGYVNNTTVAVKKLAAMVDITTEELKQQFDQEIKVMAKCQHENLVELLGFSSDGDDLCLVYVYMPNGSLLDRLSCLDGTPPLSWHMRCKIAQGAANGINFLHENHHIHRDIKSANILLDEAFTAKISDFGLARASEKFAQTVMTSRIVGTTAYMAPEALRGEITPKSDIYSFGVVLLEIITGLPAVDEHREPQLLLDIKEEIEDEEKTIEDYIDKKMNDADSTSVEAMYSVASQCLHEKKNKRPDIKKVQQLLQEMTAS

Consider `C[C@@H](O)C(=O)N1CCC(N2CC(n3cc(NC(=O)c4cccc(-c5cc[nH]n5)n4)c(C(F)F)n3)C2)CC1` [Example 40, (R)—N-(3-(difluoromethyl)-1-(1-(1-(2-hydroxypropionyl)piperidin-4-yl)azetidin-3-yl)-1H-pyrazol-4-yl)-6-(1H-pyrazol-3-yl)-2-picolinamide], for which the values for the IC50 (at IRAK4 kinase; in experiment [1]) were 0.00059 µM and 0.026 µM, respectively.
